# Source: ChEMBL document CHEMBL5321235, “Design, synthesis, and SAR study of novel flavone 1,2,4-oxadiazole derivatives with anti-inflammatory activities for the treatment of Parkinson's disease” (Eur J Med Chem, 2023)
# Activity calls are given as the source filed them. The calls are words filed in the database; no cut-off is given here.
# Tests used:
# BV-2 [1] = assay: Cytotoxicity against mouse BV-2 cells assessed as reduction in cell viability at 5 uM pretreated for 18 hrs followed by LPS-stimulation and measured after 6 hrs by MTT assay; type: toxicity, cell-based; conditions: bv-2, 24 h
# BV-2 [2] = assay: Cytotoxicity against mouse BV-2 cells assessed as reduction in cell viability at 10 uM pretreated for 18 hrs followed by LPS-stimulation and measured after 6 hrs by MTT assay; type: toxicity, cell-based; conditions: bv-2, 24 h
# BV-2 [3] = assay: Antiinflammatory activity in mouse BV-2 cells assessed as inhibition of LPS-induced NO production at 5 uM pretreated for 18 hrs followed by LPS-induction and measured after 6 hrs relative to control; type: functional; parameters: scale not given: the % may be the effect or the level left; conditions: time 24 hrs
# BV-2 [4] = assay: Inhibition of LPS-induced ROS production in mouse BV-2 cells at 5 uM pretreated for 18 hrs followed by LPS-stimulation and measured after 6 hrs by fluorescence microscopic analysis; type: functional, cell-based; conditions: time 24.0 hrs
# BV-2 [5] = assay: Inhibition of NF-kappaB activation in LPS-stimulated mouse BV-2 cells assessed as increase in IkappaBalpha expression at 5 to 10 uM pretreated for 18 hrs followed by LPS-stimulation and measured after 6 hrs by Western blot analysis; type: cell-based; conditions: dose 5-10 µM, time 24.0 hrs
# BV-2 [6] = assay: Antiinflammatory activity in LPS-induced mouse BV-2 cells assessed as reduction in TNF-alpha mRNA expression at 5 to 10 uM pretreated for 18 hrs followed by LPS-stimulation and measured after 6 hrs by qRT-PCR analysis; type: functional, cell-based; conditions: dose 5-10 µM, time 24.0 hrs
# BV-2 [7] = assay: Antiinflammatory activity in LPS-induced mouse BV-2 cells assessed as reduction in IL-1beta mRNA expression at 5 to 10 uM pretreated for 18 hrs followed by LPS-stimulation and measured after 6 hrs by qRT-PCR analysis; type: functional, cell-based; conditions: dose 5-10 µM, time 24.0 hrs
# BV-2 [8] = assay: Antiinflammatory activity in LPS-induced mouse BV-2 cells assessed as increase in Arg-1 mRNA expression at 5 to 10 uM pretreated for 18 hrs followed by LPS-stimulation and measured after 6 hrs by qRT-PCR analysis; type: functional, cell-based; conditions: dose 5-10 µM, time 24.0 hrs
# BV-2 [9] = assay: Inhibition of LPS-induced ERK phosphorylation in mouse BV-2 cells at 5 to 10 uM pretreated for 12 hrs followed by LPS-stimulation and measured after 6 hrs by Western blot analysis; type: cell-based; conditions: dose 5-10 µM, time 18.0 hrs
# [10] = target: MAP kinase p38 (Mus musculus) (UniProt P47811+O08911+Q9WUI1+Q9Z1B7); assay: Inhibition of LPS-induced p38 phosphorylation in mouse BV-2 cells at 5 to 10 uM pretreated for 12 hrs followed by LPS-stimulation and measured after 6 hrs by Western blot analysis; type: cell-based; conditions: dose 5-10 µM, time 18.0 hrs
# [11] = target: c-Jun N-terminal kinase (Mus musculus) (UniProt Q91Y86+Q9WTU6+Q61831); assay: Inhibition of LPS-induced JNK phosphorylation in mouse BV-2 cells at 5 to 10 uM pretreated for 12 hrs followed by LPS-stimulation and measured after 6 hrs by Western blot analysis; type: cell-based; conditions: dose 5-10 µM, time 18.0 hrs
# Chain of c-Jun N-terminal kinase (Mus musculus) (Q61831 whole entry, looked up): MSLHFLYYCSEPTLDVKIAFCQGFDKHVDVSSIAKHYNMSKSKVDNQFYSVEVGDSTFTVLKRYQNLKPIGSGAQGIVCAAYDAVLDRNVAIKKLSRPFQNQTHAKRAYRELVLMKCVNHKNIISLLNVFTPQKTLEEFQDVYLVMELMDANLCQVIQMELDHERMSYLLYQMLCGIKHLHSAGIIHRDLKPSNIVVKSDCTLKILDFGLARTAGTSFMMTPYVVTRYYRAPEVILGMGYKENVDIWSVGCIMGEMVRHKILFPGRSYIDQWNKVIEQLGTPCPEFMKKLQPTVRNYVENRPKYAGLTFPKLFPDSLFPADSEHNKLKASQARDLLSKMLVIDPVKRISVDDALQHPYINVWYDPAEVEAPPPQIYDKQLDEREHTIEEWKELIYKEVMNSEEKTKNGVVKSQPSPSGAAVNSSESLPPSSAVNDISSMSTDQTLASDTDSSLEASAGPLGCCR
# Chain of c-Jun N-terminal kinase (Mus musculus) (Q91Y86 whole entry, looked up): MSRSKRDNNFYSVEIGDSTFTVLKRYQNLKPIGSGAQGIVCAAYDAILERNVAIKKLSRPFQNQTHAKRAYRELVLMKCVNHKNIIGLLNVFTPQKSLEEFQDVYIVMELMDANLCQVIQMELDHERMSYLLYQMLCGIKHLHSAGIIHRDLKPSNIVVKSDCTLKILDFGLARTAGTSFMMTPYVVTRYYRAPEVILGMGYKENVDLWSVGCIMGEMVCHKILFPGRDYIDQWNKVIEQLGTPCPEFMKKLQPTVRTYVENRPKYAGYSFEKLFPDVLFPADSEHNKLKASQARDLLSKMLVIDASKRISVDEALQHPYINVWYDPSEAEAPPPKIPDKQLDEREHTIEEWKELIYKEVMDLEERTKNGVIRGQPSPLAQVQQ
# Chain of c-Jun N-terminal kinase (Mus musculus) (Q9WTU6 whole entry, looked up): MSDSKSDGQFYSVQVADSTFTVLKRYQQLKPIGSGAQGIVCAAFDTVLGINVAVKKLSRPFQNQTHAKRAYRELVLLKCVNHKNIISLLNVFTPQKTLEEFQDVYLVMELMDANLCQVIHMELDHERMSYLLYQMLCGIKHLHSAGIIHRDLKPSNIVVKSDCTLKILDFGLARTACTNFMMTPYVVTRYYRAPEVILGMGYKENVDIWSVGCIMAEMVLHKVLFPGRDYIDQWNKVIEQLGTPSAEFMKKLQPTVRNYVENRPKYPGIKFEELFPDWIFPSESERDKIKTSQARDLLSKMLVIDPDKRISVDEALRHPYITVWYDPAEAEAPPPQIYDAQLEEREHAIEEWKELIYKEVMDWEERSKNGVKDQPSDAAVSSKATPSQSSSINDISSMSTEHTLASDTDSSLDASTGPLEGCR
# BV-2 [12] = assay: Inhibition of LPS-induced NF-kappaB nuclear translocation in mouse BV-2 cells at 5 to 10 uM pretreated for 18 hrs followed by LPS-stimulation and measured after 6 hrs by immunofluorescence analysis; type: cell-based; conditions: dose 5-10 µM, time 24.0 hrs
# BV-2 [13] = assay: Induction of apoptosis in LPS-induced mouse BV-2 cells assessed as increase in BAX expression at 5 to 10 uM pretreated for 18 hrs followed by LPS-stimulation and measured after 6 hrs by Western blot analysis; type: functional, cell-based; conditions: dose 5-10 µM, time 24.0 hrs
# BV-2 [14] = assay: Induction of apoptosis in LPS-induced mouse BV-2 cells assessed as increase in Caspase3 expression at 5 to 10 uM pretreated for 18 hrs followed by LPS-stimulation and measured after 6 hrs by Western blot analysis; type: functional, cell-based; conditions: dose 5-10 µM, time 24.0 hrs
# BV-2 [15] = assay: Induction of apoptosis in mouse LPS-induced BV-2 cells assessed as increase in Bcl-2 expression at 5 to 10 uM pretreated for 18 hrs followed by LPS-stimulation and measured after 6 hrs by Western blot analysis; type: functional, cell-based; conditions: dose 5-10 µM, time 24.0 hrs
# BV-2 [16] = assay: Induction of apoptosis in LPS-induced mouse BV-2 cells assessed as increase in BAX expression at 5 to 10 uM pretreated for 18 hrs followed by LPS-stimulation and measured after 6 hrs by immunofluorescence analysis; type: functional, cell-based; conditions: dose 5-10 µM, time 24.0 hrs
# BV-2 [17] = assay: Induction of apoptosis in LPS-induced mouse BV-2 cells assessed as increase in Caspase3 expression at 5 to 10 uM pretreated for 18 hrs followed by LPS-stimulation and measured after 6 hrs by immunofluorescence analysis; type: functional, cell-based; conditions: dose 5-10 µM, time 24.0 hrs
# BV-2 [18] = assay: Induction of apoptosis in LPS-induced mouse BV-2 cells assessed as increase in cleaved Caspase-3 expression at 5 to 10 uM pretreated for 18 hrs followed by LPS-stimulation and measured after 6 hrs by immunofluorescence analysis; type: functional, cell-based; conditions: dose 5-10 µM, time 24.0 hrs
# BV-2 [19] = assay: Induction of apoptosis in LPS-induced mouse BV-2 cells assessed as increase in Bcl-2 mRNA expression at 5 to 10 uM pretreated for 18 hrs followed by LPS-stimulation and measured after 6 hrs by qRT-PCR analysis; type: functional, cell-based; conditions: dose 5-10 µM, time 24.0 hrs
# BV-2 [20] = assay: Induction of apoptosis in LPS-induced mouse BV-2 cells assessed as increase in BAX mRNA expression at 5 to 10 uM pretreated for 18 hrs followed by LPS-stimulation and measured after 6 hrs by qRT-PCR analysis; type: functional, cell-based; conditions: dose 5-10 µM, time 24.0 hrs
# BV-2 [21] = assay: Induction of apoptosis in LPS-induced mouse BV-2 cells assessed as increase in Caspase3 mRNA expression at 5 to 10 uM pretreated for 18 hrs followed by LPS-stimulation and measured after 6 hrs by qRT-PCR analysis; type: functional, cell-based; conditions: dose 5-10 µM, time 24.0 hrs
# Mus musculus [22] = assay: Anti-parkinson activity in MPTP-induced C57BL/6J mouse model at 15 to 35 mg/kg, ip administered with compound once daily for 2 weeks followed by MPTP addition on day 8 and measured after 2 weeks of compound addition by rotarod test; type: functional, organism-based; conditions: dose 15-35 mg/kg
# Mus musculus [23] = assay: Antiinflammatory activity in C57BL/6J mouse assessed as inhibition of MPTP-induced p38 phosphorylation at 15 mg/kg, ip administered with compound once daily for 2 weeks followed by MPTP addition on day 8 and measured after 2 weeks of compound addition Western blot analysis; type: functional, organism-based
# Mus musculus [24] = assay: Antiinflammatory activity in C57BL/6J mouse assessed as inhibition of MPTP-induced ERK phosphorylation at 15 mg/kg, ip administered with compound once daily for 2 weeks followed by MPTP addition on day 8 and measured after 2 weeks of compound addition Western blot analysis; type: functional, organism-based
# Mus musculus [25] = assay: Antiinflammatory activity in C57BL/6J mouse assessed as inhibition of MPTP-induced NF-kappaB phosphorylation at 15 mg/kg, ip administered with compound once daily for 2 weeks followed by MPTP addition on day 8 and measured after 2 weeks of compound addition Western blot analysis; type: functional, organism-based
# Microglia [26] = assay: Neuroprotective activity against MPTP-induced apoptosis in mouse microglia assessed as reduction in apoptotic cells in brain tissue at 15 mg/kg, ip administered with compound once daily for 2 weeks followed by MPTP addition on day 8 and measured after 2 weeks of compound addition by TUNEL staining based immunofluorescence analysis; type: functional, organism-based
# Microglia [27] = assay: Neuroprotective activity against MPTP-induced apoptosis in mouse microglia assessed as […] expression in brain tissue at 15 mg/kg, ip administered with compound once daily for 2 weeks followed by MPTP addition on day 8 and measured after 2 weeks of compound addition; type: functional, organism-based
# Microglia [28] = assay: Neuroprotective activity against MPTP-induced apoptosis in mouse microglia assessed as increase in Bcl2 expression in brain tissue at 15 mg/kg, ip administered with compound once daily for 2 weeks followed by MPTP addition on day 8 and measured after 2 weeks of compound addition by Western blot analysis; type: functional, organism-based
smiles,measurement,setting,value
Cc1cccc(-c2noc(-c3cccc4c(=O)c(C)c(-c5ccccc5)oc34)n2)c1,Activity,BV-2 [1],Non-Toxic
same,Activity,BV-2 [2],Non-Toxic
same,Activity,BV-2 [3],64.2%
same,inhibition,BV-2 [4],Active
same,inhibition,BV-2 [5],Active
same,Activity,BV-2 [6],Active
same,Activity,BV-2 [7],Active
same,Activity,BV-2 [8],Active
same,inhibition,BV-2 [9],Active
same,inhibition,[10],Active
same,inhibition,[11],Active
same,inhibition,BV-2 [12],Active
same,Activity,BV-2 [13],Active
same,Activity,BV-2 [14],Active
same,Activity,BV-2 [15],Active
same,Activity,BV-2 [16],Active
same,Activity,BV-2 [17],Active
same,Activity,BV-2 [18],Active
same,Activity,BV-2 [19],Active
same,Activity,BV-2 [20],Active
same,Activity,BV-2 [21],Active
same,Activity,Mus musculus [22],Active
same,Activity,Mus musculus [23],Active
same,Activity,Mus musculus [24],Active
same,Activity,Mus musculus [25],Active
same,Activity,Microglia [26],Active
same,Activity,Microglia [27],Active
same,Activity,Microglia [28],Active
